From patent US20140155384A1, “COMPOUNDS AND METHODS OF TREATING DIABETES” (Medivation Technologies, Inc., priority 2011, published 2014)

Experiments:
[1] = molecular target: T1, human recombinant adrenergic α2A receptor (Homo sapiens, UniProt P08913); test: Radioligand binding, adrenergic α2A receptor ([3H]MK-912); settings: 0.1 μM compound; Sf9 cells; 1 nM [3H]MK-912; read-out: Percentage inhibition of ligand binding, Adrenergic α2A
T1 construct: expressed in transfected cells; host or cells: insect Sf9 cells
T1 sequence (P08913 1-465): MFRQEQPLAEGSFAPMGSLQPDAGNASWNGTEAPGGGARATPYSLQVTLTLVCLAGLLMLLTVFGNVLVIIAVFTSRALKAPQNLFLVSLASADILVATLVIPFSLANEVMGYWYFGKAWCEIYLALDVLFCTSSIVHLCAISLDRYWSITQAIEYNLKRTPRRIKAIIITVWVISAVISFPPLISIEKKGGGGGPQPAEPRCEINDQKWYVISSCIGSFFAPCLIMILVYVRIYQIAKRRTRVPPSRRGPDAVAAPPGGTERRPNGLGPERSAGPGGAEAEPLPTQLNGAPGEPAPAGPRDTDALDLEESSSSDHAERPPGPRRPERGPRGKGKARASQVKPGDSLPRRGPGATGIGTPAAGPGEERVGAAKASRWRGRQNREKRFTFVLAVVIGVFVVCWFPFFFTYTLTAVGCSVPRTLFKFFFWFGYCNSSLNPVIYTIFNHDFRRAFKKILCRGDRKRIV
Method in brief: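 Percent inhibition of specific [3H]MK-912 (1 nM) binding measured by filtration counting, compounds tested at ≤1 μM in 1% DMSO. Receptor: human α2A from Sf9 cells; incubation 60 min, 25 °C, pH 7.4; 10 μM WB-4101 defined nonspecific binding.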

[2] = molecular target: T2, rat adrenergic α1B receptor (Rattus norvegicus, UniProt P15823); test: Radioligand binding, adrenergic α1B receptor ([3H]Prazosin); settings: 0.1 μM compound, Wistar rat liver, read-out: Percentage inhibition of ligand binding, Adrenergic α1B
T2 construct: rat adrenergic α1B receptor obtained from Wistar Rat liver; from tissue; host or cells: Wistar rat liver
T2 sequence (P15823 1-515): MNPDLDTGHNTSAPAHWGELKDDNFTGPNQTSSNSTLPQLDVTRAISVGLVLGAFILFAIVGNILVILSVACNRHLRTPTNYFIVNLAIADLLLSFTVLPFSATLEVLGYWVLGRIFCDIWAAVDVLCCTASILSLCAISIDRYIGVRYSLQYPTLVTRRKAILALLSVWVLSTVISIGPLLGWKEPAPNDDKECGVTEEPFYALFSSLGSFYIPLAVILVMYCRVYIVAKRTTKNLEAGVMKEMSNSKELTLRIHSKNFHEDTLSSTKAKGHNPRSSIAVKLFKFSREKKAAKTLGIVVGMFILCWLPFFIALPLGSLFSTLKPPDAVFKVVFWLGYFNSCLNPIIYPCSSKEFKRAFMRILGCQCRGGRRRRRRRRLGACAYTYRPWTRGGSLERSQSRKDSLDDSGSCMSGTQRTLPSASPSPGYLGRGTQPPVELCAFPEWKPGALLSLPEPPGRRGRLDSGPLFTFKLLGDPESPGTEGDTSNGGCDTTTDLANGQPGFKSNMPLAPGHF
Method in brief: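 Wistar rat liver α1B receptor preparation incubated with 0.25 nM [3H]prazosin and compound for 60 min at 25° C in 50 mM Tris-HCl pH 7.4, 0.5 mM EDTA; nonspecific binding defined with 10 μM phentolamine.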

[3] = molecular target: T3, human recombinant adrenergic α2B receptor (Homo sapiens, UniProt P18089); test: Radioligand binding, adrenergic α2B receptor ([3H]Rauwolscine); settings: 0.1 μM compound, CHO-K1 cells, read-out: Percentage inhibition of ligand binding, Adrenergic α2B
T3 construct: expressed in transfected cells; host or cells: CHO-K1
T3 sequence (P18089 1-450): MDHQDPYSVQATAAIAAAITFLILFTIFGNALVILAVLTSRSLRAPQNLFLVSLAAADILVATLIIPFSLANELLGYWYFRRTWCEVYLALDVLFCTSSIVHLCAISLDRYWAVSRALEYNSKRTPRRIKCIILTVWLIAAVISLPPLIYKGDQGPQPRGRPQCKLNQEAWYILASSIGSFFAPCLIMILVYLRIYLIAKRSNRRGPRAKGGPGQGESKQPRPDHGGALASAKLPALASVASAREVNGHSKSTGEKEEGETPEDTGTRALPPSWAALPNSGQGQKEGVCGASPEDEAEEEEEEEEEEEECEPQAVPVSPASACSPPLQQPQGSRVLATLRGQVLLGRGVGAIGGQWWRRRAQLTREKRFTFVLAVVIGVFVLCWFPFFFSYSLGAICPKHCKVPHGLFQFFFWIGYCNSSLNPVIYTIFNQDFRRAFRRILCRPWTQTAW
Method in brief: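 Percent inhibition of specific [3H]Rauwolscine (2.5 nM) binding, compounds at ≤1 μM, 1% DMSO vehicle, 10 μM prazosin defining nonspecific. Receptor: human α2B expressed in CHO-K1 cells, 60 min incubation at 25 °C in Tris-HCl pH 7.4 buffer (MgCl2, EDTA, BSA); filtered, washed, counted.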

[4] = molecular target: T4, human recombinant adrenergic α1D receptor (Homo sapiens, UniProt P25100); test: Radioligand binding, adrenergic α1D receptor ([3H]Prazosin); settings: 0.1 μM compound; HEK-293 cells; 0.6 nM [3H]Prazosin; read-out: Percentage inhibition of ligand binding, Adrenergic α1D
T4 construct: expressed in transfected cells; host or cells: HEK-293
T4 sequence (P25100 1-572): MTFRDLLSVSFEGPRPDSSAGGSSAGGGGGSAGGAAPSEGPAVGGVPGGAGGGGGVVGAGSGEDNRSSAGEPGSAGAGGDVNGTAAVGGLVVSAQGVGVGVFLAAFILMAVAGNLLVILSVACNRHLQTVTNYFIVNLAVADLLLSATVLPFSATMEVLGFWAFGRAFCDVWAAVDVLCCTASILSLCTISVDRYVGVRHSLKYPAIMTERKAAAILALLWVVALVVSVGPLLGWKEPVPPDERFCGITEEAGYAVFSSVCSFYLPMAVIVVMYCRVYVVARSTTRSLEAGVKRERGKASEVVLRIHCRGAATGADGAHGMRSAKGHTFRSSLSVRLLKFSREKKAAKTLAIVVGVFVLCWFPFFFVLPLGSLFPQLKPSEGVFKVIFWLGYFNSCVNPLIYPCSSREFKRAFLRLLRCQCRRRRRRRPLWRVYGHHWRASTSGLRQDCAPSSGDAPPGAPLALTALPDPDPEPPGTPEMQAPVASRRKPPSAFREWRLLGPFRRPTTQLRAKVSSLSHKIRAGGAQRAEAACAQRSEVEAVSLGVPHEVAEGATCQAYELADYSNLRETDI
Protocol: Compounds were incubated with 0.6 nM [3H]Prazosin for 60 min at 25° C. Non-specific binding was estimated in the presence of 10 μM phentolamine. Receptor proteins were filtered and washed, the filters were then counted to determine [3H]Prazosin specifically bound. Compounds were screened at 1 μM or lower, using 1% DMSO as vehicle. Biochemical assay results are presented as the percent inhibition of specific binding in Table 2.

Cc1ccc2c(c1)c1c(n2-c2ccc(-c3ccc(F)cc3)cn2)CCN(C)C1 [Compound No. 140, 5-(5-(4-fluorophenyl)pyridin-2-yl)-2,8-dimethyl-2,3,4,5-tetrahydro-1H-pyrido[4,3-b]indole]
inhibition at 0.1 µM [1]: 70%
inhibition at 0.1 µM [2]: 69%
inhibition at 0.1 µM [3]: 96%
inhibition at 0.1 µM [4]: 56%
